How the values were obtained:
[1] = target: T1, human RORγt (Homo sapiens, UniProt P51449); assay: IL-17 secretion from EL4 murine lymphoma overexpressing human RORγt; format: cell-based; parameters: expressed in transfected cells; host or cells: EL-4 murine lymphoma; conditions: IL-17 secretion inhibition, PMA and ionomycin stimulation, 24 h
T1 sequence (P51449 1-497 isoform P51449-2): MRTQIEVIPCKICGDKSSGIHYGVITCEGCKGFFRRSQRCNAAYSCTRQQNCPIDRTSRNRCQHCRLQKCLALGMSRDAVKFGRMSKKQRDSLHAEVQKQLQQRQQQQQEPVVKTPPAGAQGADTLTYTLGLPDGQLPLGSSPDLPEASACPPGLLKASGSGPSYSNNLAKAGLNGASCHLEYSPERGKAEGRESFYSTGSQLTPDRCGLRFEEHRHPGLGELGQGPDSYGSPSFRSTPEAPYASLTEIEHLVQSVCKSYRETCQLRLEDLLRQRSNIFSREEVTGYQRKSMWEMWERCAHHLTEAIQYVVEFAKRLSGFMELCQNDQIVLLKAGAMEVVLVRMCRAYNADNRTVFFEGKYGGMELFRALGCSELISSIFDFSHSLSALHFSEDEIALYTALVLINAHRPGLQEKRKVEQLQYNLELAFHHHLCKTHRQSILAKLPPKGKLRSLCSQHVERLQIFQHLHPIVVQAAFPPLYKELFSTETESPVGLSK
Experimental: Murine EL-4 lymphoma cell line overexpressing human RORγt was used in this functional assay to assess compound ability to inhibit IL-17 cytokine secretion.
EL-4 cells are maintained in a standard culture medium RPMI supplemented with 10% fetal calf serum, 1% sodium pyruvate, 1% essential amino acids and 1% antibiotics at 37° C. in a humidified atmosphere of 5% CO2 and 95% air. Culture medium was changed every 2 days. EL4 cells were transfected with a plasmid encoding hRORγt (sequence identical to published sequence NM 001001523). […] Briefly, 1 μg of DNA/1 million cells was served to transfect EL-4 cells. Cell/DNA suspension was transferred into certified cuvette and the electroporation of RORγt plasmid was carried out using appropriate Nucleofector® program.
Cells were seeded in 96 well plates at a density of 150000 cells/well then treated with compounds of this invention at indicated concentrations and incubated for 24 hours at 37° C. in a humidified atmosphere of 5% CO2 and 95% air. EL-4 cells were pretreated with test compounds (RORγ modulators) and stimulated with PMA (10 ng/mL) and ionomycin (1 μM final concentration) in the presence of test compound concentrations for additional 24 h at 37° C. in a humidified atmosphere of 5% CO2 and 95% air. Subsequently, supernatants were collected (after centrifugation at 300 g for 10 minutes) to determine the concentrations of IL-17 by HTRF (CisBio, France) or ELISA (R&D Systems Europe) according to the manufacturer's protocols.

[2] = target: T2, RORγt ligand-binding domain (RORγt-LBD) (Homo sapiens, UniProt P51449); assay: Time-resolved FRET (TR-FRET) RORγt coactivator assay; format: biochemical; conditions: GST-RORγ-LBD, biotinylated RIP140 peptide, coactivator displacement
T2 construct: 20 nM recombinantly expressed RORγ-LBD fused to GST
T2 sequence (P51449 269-508 limits assumed): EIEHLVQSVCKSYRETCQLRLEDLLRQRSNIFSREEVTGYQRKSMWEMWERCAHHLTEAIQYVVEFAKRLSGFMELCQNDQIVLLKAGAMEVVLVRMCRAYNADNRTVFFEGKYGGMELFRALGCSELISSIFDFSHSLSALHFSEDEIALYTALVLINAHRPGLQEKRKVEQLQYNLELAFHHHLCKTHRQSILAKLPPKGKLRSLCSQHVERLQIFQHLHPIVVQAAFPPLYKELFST

SMILES | IC50 [1] | IC50 [2]
Cc1cc(Br)ccc1C(NC(=O)Cc1ccc2[nH]cc(CCC(=O)OC(C)(C)C)c2c1)c1ccccc1 (stereo not drawn) [Cpd. 43, tert-butyl 3-[5-({[(4-bromo-2-methylphenyl)(phenyl)methyl]carbamoyl}methyl)-1H-indol-3-yl]propanoate] | 10000 to 30000 nM | 1000 to 10000 nM
CC(C)(C)OC(=O)CCc1c[nH]c2ccc(CC(=O)NC(c3ccccc3)c3ccc(C(F)(F)F)cc3N3CCCC3)cc12 (stereo not drawn) [Cpd. 47, tert-butyl 3-{5-[({phenyl[2-(pyrrolidin-1-yl)-4-(trifluoromethyl)phenyl]methyl}carbamoyl)methyl]-1H-indol-3-yl}propanoate] | 1000 to 10000 nM | 1000 to 10000 nM
CC(C)(C)OC(=O)CCc1c[nH]c2ccc(CC(=O)NC(c3ccccc3)c3ccc(Br)cc3N3CCCC3)cc12 (stereo not drawn) [Cpd. 49, tert-butyl 3-{5-[({[4-bromo-2-(pyrrolidin-1-yl)phenyl](phenyl)methyl}carbamoyl)methyl]-1H-indol-3-yl}propanoate] | 1000 to 10000 nM | 1000 to 10000 nM
CC(C)(C)OC(=O)CCc1c[nH]c2ccc(CC(=O)NC(c3ccccc3)c3ccccc3N3CCCC3)cc12 (stereo not drawn) [Cpd. 78, tert-butyl 3-{5-[({phenyl[2-(pyrrolidin-1-yl)phenyl]methyl}carbamoyl)methyl]-1H-indol-3-yl}propanoate] | 1000 to 10000 nM | 1000 to 10000 nM
COC(=O)Cc1c[nH]c2ccc(CC(=O)NC(c3ccccc3)c3ccc(C)cc3N3CCOCC3)cc12 (stereo not drawn) [Cpd. 96, methyl 2-{5-[({[4-methyl-2-(morpholin-4-yl)phenyl](phenyl)methyl}carbamoyl)methyl]-1H-indol-3-yl}acetate] | 1000 to 10000 nM | < 1000 nM
COc1cc(C)ccc1C(NC(=O)Cc1ccc2[nH]cc(CCC(=O)OC(C)(C)C)c2c1)c1ccccc1 (stereo not drawn) [Cpd. 98, tert-butyl 3-[5-({[(2-methoxy-4-methylphenyl)(phenyl)methyl]carbamoyl}methyl)-1H-indol-3-yl]propanoate] | 1000 to 10000 nM | < 1000 nM
COc1ccc(C(NC(=O)Cc2ccc3[nH]cc(CCC(=O)OC(C)(C)C)c3c2)c2ccccc2)c(N2CCCC2)c1 (stereo not drawn) [Cpd. 108, tert-butyl 3-{5-[({[4-methoxy-2-(pyrrolidin-1-yl)phenyl](phenyl)methyl}carbamoyl)methyl]-1H-indol-3-yl}propanoate] | < 1000 nM | < 1000 nM
CCOc1ccccc1C(CC(C)C)NC(=O)Cc1ccc2[nH]cc(CCC(=O)O)c2c1 (stereo not drawn) [compound 243, 3-[5-({[1-(2-ethoxyphenyl)-3-methylbutyl]carbamoyl}methyl)-1H-indol-3-yl]propanoic acid] | – | < 1000 nM
CC(C)CCC(NC(=O)Cc1ccc2[nH]cc(CCC(=O)O)c2c1)c1ccccc1N1CCCCC1 (stereo not drawn) [compound 245, 3-{5-[({4-methyl-1-[2-(piperidin-1-yl)phenyl]pentyl}carbamoyl)methyl]-1H-indol-3-yl}propanoic acid] | – | < 1000 nM
CCOc1ccc(C(NC(=O)Cc2ccc3[nH]cc(CCC(=O)O)c3c2)c2ccccc2)c(OCC)c1 (stereo not drawn) [compound 247, 3-[5-({[(2,4-diethoxyphenyl)(phenyl)methyl]carbamoyl}methyl)-1H-indol-3-yl]propanoic acid] | – | < 1000 nM
Cc1ccc(C(NC(=O)Cc2ccc3[nH]cc(CCC(=O)O)c3c2)c2ccccc2)c(N2CCCCCC2)c1 (stereo not drawn) [compound 251, 3-{5-[({[2-(azepan-1-yl)-4-methylphenyl](phenyl)methyl}carbamoyl)methyl]-1H-indol-3-yl}propanoic acid] | – | < 1000 nM
Cc1cc(C(NC(=O)Cc2ccc3[nH]cc(CCC(=O)O)c3c2)c2ccccc2N2CCCCC2)oc1C (stereo not drawn) [compound 253, 3-[5-({[(4,5-dimethylfuran-2-yl)[2-(piperidin-1-yl)phenyl]methyl]carbamoyl}methyl)-1H-indol-3-yl]propanoic acid] | – | < 1000 nM
Cc1ccc(C(NC(=O)Cc2ccc3[nH]cc(CCC(=O)O)c3c2)c2ccccc2OC(C)C)o1 (stereo not drawn) [compound 255, 3-[5-({[(5-methylfuran-2-yl)[2-(propan-2-yloxy)phenyl]methyl]carbamoyl}methyl)-1H-indol-3-yl]propanoic acid] | – | < 1000 nM
CON(C)C(=O)Cc1c[nH]c2ccc(CC(=O)NC(c3ccccc3)c3ccccc3N3CCCCC3)cc12 (stereo not drawn) [compound 258, N-methoxy-N-methyl-2-{5-[({phenyl[2-(piperidin-1-yl)phenyl]methyl}carbamoyl)methyl]-1H-indol-3-yl}acetamide] | – | < 1000 nM
CC(C)CC(NC(=O)Nc1ccc2[nH]cc(CCC(=O)OC(C)(C)C)c2c1)c1ccccc1N1CCCCC1 (stereo not drawn) [compound 262, tert-butyl 3-{5-[({3-methyl-1-[2-(piperidin-1-yl)phenyl]butyl}carbamoyl)amino]-1H-indol-3-yl}propanoate] | – | 1000 to 10000 nM
Cc1ccc(C(NC(=O)Cc2ccc3[nH]cc(CCC(=O)OC(C)(C)C)c3c2)c2ccccc2)c(N2CCN(Cc3ccccc3)CC2)c1 (stereo not drawn) [compound 263, tert-butyl 3-{5-[({[2-(4-benzylpiperazin-1-yl)-4-methylphenyl](phenyl)methyl}carbamoyl)methyl]-1H-indol-3-yl}propanoate] | – | < 1000 nM

Now from value to compound:

IC50 [1] | IC50 [2] | SMILES
1000 to 10000 nM | < 1000 nM | CC(C)(C)OC(=O)CCc1c[nH]c2ccc(CC(=O)NC(c3ccccc3)c3ccc(C#N)cc3N3CCCC3)cc12 (stereo not drawn) [Cpd. 59, tert-butyl 3-{5-[({[4-cyano-2-(pyrrolidin-1-yl)phenyl](phenyl)methyl}carbamoyl)methyl]-1H-indol-3-yl}propanoate]
< 1000 nM | < 1000 nM | COC(=O)Cc1c[nH]c2ccc(CC(=O)NC(c3ccccc3)c3ccc(C)cc3N3CCCC3)cc12 (stereo not drawn) [Cpd. 64, methyl 2-{5-[({[4-methyl-2-(pyrrolidin-1-yl)phenyl](phenyl)methyl}carbamoyl)methyl]-1H-indol-3-yl}acetate]
1000 to 10000 nM | < 1000 nM | Cc1ccc(C(NC(=O)Cc2ccc3[nH]cc(CCC(=O)OC(C)(C)C)c3c2)c2ccccc2)c(N2CCCCC2)c1 (stereo not drawn) [Cpd. 76, tert-butyl 3-{5-[({[4-methyl-2-(piperidin-1-yl)phenyl](phenyl)methyl}carbamoyl)methyl]-1H-indol-3-yl}propanoate]
1000 to 10000 nM | < 1000 nM | COc1ccc(C(NC(=O)Cc2ccc3[nH]cc(CCC(=O)OC(C)(C)C)c3c2)c2ccccc2)c(C)c1 (stereo not drawn) [Cpd. 82, tert-butyl 3-[5-({[(4-methoxy-2-methylphenyl)(phenyl)methyl]carbamoyl}methyl)-1H-indol-3-yl]propanoate]
1000 to 10000 nM | < 1000 nM | COC(=O)Cc1c[nH]c2ccc(CC(=O)NC(c3ccccc3)c3ccc(Cl)cc3N3CCCC3)cc12 (stereo not drawn) [Cpd. 84, methyl 2-{5-[({[4-chloro-2-(pyrrolidin-1-yl)phenyl](phenyl)methyl}carbamoyl)methyl]-1H-indol-3-yl}acetate]
< 1000 nM | < 1000 nM | COC(=O)Cc1c[nH]c2ccc(CC(=O)NC(c3ccccc3)c3ccc(C)cc3N3CCCCC3)cc12 (stereo not drawn) [Cpd. 86, methyl 2-{5-[({[4-methyl-2-(piperidin-1-yl)phenyl](phenyl)methyl}carbamoyl)methyl]-1H-indol-3-yl}acetate]
1000 to 10000 nM | < 1000 nM | COC(=O)Cc1c[nH]c2ccc(CC(=O)NC(c3ccccc3)c3ccc(C(F)(F)F)cc3N3CCCC3)cc12 (stereo not drawn) [Cpd. 88, methyl 2-{5-[({phenyl[2-(pyrrolidin-1-yl)-4-(trifluoromethyl)phenyl]methyl}carbamoyl)methyl]-1H-indol-3-yl}acetate]
10000 to 30000 nM | < 1000 nM | CC(C)(C)OC(=O)CCc1c[nH]c2ccc(CC(=O)NC(c3ccccc3)c3ccc(Cl)cc3N3CCCC3)cc12 (stereo not drawn) [Cpd. 90, tert-butyl 3-{5-[({[4-chloro-2-(pyrrolidin-1-yl)phenyl](phenyl)methyl}carbamoyl)methyl]-1H-indol-3-yl}propanoate]

— US9902725B2, “Heterocyclic derivatives as RORgamma modulators” (GENFIT, priority 2014, dated 2018)
